Test results reported in ChEMBL document CHEMBL4507289, “Data for DCP probe GSM1” (2021).
The source made the active and inactive calls. The calls are words filed in the database; no cut-off is given here.

Tests used:
[1] = molecular target: Mitogen-activated protein kinase 11 (Homo sapiens) (UniProt Q15759); conditions: Compound concentration 1000.0 nM
[2] = molecular target: Serine/threonine-protein kinase WNK4 (Homo sapiens) (UniProt Q96J92); conditions: Compound concentration 1000.0 nM
D(4) dopamine receptor = D(4) dopamine receptor (Homo sapiens, UniProt P21917); assay: GPCRScan assay: inhibition of D4; design: radioligand conc. used [nm] 0.6 – 1.7, parental cells Stable HEK
[3] = molecular target: Cyclin-dependent kinase-like 1 (Homo sapiens) (UniProt Q00532); conditions: Compound concentration 1000.0 nM
[4] = GPCRScan assay: inhibition of GABA/PBR; design: species or system Rattus norvegicus; radioligand conc. used [nm] 0.3 – 2.0, parental cells brain tissue
[5] = molecular target: Activin receptor type-1B (Homo sapiens) (UniProt P36896); conditions: Compound concentration 1000.0 nM
[6] = molecular target: 5-hydroxytryptamine receptor 1D (Homo sapiens) (UniProt P28221); conditions: Compound concentration 10.0 uM
[7] = molecular target: Leucine-rich repeat serine/threonine-protein kinase 2 (Homo sapiens) (UniProt Q5S007); conditions: Compound concentration 1000.0 nM
[8] = molecular target: D(1A) dopamine receptor (Homo sapiens) (UniProt P21728); conditions: Compound concentration 10.0 uM
[9] = molecular target: Alpha-1A adrenergic receptor (Homo sapiens, UniProt P35348); assay: GPCRScan assay: inhibition of Alpha1A; design: radioligand conc. used [nm] 0.2 - 1.0, parental cells stable HEK
[10] = molecular target: Ribosomal protein S6 kinase alpha-6 (Homo sapiens) (UniProt Q9UK32); conditions: Compound concentration 1000.0 nM
[11] = molecular target: Alpha-1B adrenergic receptor (Homo sapiens, UniProt P35368); assay: GPCRScan assay: inhibition of Alpha1B; design: radioligand conc. used [nm] 0.3 – 1.0, parental cells stable HEK
[12] = molecular target: Tyrosine-protein kinase JAK3 (Homo sapiens) (UniProt P52333); conditions: Compound concentration 1000.0 nM
[13] = molecular target: Mitogen-activated protein kinase 14 (Homo sapiens) (UniProt Q16539); conditions: Compound concentration 1000.0 nM
[14] = molecular target: Dual specificity mitogen-activated protein kinase kinase 6 (Homo sapiens) (UniProt P52564); conditions: Compound concentration 1000.0 nM
[15] = molecular target: 5-hydroxytryptamine receptor 7 (Homo sapiens) (UniProt P34969); conditions: Compound concentration 10.0 uM
[16] = molecular target: Casein kinase I isoform delta (Homo sapiens) (UniProt P48730); conditions: Compound concentration 1000.0 nM
[17] = tested on: Mast/stem cell growth factor receptor Kit (Homo sapiens), P10721 [L576P]; conditions: Compound concentration 1000.0 nM
[18] = molecular target: Ribosomal protein S6 kinase alpha-6 (Homo sapiens) (UniProt Q9UK32); conditions: Compound concentration 1000.0 nM; remark: listed apart in the source
[19] = molecular target: T1, Sodium-dependent serotonin transporter (Homo sapiens, UniProt P31645); conditions: Compound concentration 10.0 uM
[20] = molecular target: 5-hydroxytryptamine receptor 6 (Homo sapiens) (UniProt P50406); conditions: Compound concentration 10.0 uM
[21] = molecular target: Beta-2 adrenergic receptor (Homo sapiens) (UniProt P07550); conditions: Compound concentration 10.0 uM
[22] = molecular target: 5-hydroxytryptamine receptor 1E (Homo sapiens) (UniProt P28566); conditions: Compound concentration 10.0 uM
[23] = molecular target: T2, Sodium-dependent dopamine transporter (Homo sapiens, UniProt Q01959); assay: Dopamine-uptake assay
[24] = molecular target: Muscarinic acetylcholine receptor M2 (Homo sapiens) (UniProt P08172); conditions: Compound concentration 10.0 uM
Histamine H2 receptor = Histamine H2 receptor (Homo sapiens, UniProt P25021); assay: GPCRScan assay: inhibition of H2; design: radioligand conc. used [nm] 0.02 – 0.05, parental cells Stable HEK
[25] = molecular target: T2, Sodium-dependent dopamine transporter; assay: GPCRScan assay: inhibition of DAT; design: radioligand conc. used [nm] 3.6 – 16.0, parental cells stable HEK
[26] = molecular target: Alpha-1A adrenergic receptor (Homo sapiens) (UniProt P35348); conditions: Compound concentration 10.0 uM
[27] = molecular target: Alpha-1D adrenergic receptor (Homo sapiens) (UniProt P25100); conditions: Compound concentration 10.0 uM
[28] = molecular target: Muscarinic acetylcholine receptor M1 (Homo sapiens) (UniProt P11229); conditions: Compound concentration 10.0 uM
[29] = molecular target: Beta-3 adrenergic receptor (Homo sapiens) (UniProt P13945); conditions: Compound concentration 10.0 uM
[30] = molecular target: T1, Sodium-dependent serotonin transporter; assay: Serotonin-uptake assay
[31] = molecular target: Alpha-1B adrenergic receptor (Homo sapiens) (UniProt P35368); conditions: Compound concentration 10.0 uM
[32] = molecular target: Sodium-dependent noradrenaline transporter (Homo sapiens, UniProt P23975); assay: GPCRScan assay: inhibition of NET; design: radioligand conc. used [nm] 1.3 – 5.0, parental cells stable HEK

Chain of Ribosomal protein S6 kinase alpha-6 (Homo sapiens) (Q9UK32 whole entry): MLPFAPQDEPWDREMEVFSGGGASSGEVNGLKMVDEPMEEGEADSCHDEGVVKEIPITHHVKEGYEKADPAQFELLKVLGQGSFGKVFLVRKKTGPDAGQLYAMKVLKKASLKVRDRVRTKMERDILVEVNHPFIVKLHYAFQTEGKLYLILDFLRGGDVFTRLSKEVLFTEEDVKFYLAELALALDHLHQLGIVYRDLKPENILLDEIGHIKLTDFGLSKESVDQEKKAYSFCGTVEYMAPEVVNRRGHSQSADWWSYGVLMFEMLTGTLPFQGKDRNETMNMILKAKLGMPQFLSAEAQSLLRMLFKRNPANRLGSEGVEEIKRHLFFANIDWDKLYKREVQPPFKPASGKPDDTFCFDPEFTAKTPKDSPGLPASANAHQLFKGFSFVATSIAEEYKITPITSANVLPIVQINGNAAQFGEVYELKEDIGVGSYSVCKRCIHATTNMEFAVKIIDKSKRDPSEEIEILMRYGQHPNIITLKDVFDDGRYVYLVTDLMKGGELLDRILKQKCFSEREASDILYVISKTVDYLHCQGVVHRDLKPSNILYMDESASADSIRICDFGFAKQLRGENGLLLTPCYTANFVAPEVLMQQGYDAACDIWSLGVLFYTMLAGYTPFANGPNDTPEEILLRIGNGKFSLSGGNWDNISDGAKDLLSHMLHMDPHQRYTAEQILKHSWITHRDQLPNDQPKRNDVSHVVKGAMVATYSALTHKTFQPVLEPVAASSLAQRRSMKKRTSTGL
T2 sequence (Q01959 whole entry): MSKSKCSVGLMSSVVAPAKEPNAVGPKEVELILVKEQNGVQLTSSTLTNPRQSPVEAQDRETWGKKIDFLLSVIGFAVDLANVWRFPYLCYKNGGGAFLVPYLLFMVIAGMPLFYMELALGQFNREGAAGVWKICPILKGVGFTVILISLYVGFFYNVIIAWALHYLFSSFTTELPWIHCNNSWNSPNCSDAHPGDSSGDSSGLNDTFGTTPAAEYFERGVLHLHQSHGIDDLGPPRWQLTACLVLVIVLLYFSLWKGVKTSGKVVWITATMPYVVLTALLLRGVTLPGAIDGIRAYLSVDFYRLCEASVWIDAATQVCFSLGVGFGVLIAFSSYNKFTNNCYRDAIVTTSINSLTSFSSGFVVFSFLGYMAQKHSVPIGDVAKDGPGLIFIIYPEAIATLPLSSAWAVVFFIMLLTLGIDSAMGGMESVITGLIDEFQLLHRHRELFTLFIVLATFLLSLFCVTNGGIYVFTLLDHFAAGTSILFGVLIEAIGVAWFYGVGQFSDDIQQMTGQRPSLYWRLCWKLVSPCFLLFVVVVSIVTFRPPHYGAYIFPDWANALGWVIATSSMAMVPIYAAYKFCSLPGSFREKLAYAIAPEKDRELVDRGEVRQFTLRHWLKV
Chain of Mitogen-activated protein kinase 11 (Homo sapiens) (Q15759 whole entry): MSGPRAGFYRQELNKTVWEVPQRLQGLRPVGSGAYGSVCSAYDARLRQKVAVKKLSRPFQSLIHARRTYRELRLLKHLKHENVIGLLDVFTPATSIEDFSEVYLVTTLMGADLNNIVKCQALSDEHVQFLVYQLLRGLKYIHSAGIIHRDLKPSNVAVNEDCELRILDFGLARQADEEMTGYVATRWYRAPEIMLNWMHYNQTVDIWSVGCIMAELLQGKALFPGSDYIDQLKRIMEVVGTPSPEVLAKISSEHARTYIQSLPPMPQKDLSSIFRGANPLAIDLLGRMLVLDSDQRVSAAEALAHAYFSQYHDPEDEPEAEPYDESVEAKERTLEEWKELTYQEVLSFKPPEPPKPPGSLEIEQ
Chain of Cyclin-dependent kinase-like 1 (Homo sapiens) (Q00532 whole entry): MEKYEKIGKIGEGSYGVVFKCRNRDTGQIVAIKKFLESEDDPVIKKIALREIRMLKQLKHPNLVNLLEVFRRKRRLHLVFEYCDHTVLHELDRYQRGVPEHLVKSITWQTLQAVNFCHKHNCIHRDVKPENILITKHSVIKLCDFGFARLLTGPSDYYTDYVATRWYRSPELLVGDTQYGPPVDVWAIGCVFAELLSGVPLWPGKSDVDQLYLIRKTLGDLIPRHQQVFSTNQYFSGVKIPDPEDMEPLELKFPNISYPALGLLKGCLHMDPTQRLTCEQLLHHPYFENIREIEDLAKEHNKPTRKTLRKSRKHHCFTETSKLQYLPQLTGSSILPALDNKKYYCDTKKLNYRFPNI
Chain of Casein kinase I isoform delta (Homo sapiens) (P48730 whole entry, looked up, canonical isoform): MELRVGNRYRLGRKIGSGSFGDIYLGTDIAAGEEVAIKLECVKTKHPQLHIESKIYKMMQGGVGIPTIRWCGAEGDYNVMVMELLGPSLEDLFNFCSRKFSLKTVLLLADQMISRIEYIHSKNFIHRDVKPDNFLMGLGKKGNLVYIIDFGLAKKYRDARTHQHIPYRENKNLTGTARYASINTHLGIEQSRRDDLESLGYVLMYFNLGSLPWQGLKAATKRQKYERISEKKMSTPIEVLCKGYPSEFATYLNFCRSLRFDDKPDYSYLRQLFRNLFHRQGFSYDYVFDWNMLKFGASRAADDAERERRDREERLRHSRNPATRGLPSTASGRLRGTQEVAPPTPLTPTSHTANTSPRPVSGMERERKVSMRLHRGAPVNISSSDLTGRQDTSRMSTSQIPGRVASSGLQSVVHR
Chain of 5-hydroxytryptamine receptor 6 (Homo sapiens) (P50406 whole entry): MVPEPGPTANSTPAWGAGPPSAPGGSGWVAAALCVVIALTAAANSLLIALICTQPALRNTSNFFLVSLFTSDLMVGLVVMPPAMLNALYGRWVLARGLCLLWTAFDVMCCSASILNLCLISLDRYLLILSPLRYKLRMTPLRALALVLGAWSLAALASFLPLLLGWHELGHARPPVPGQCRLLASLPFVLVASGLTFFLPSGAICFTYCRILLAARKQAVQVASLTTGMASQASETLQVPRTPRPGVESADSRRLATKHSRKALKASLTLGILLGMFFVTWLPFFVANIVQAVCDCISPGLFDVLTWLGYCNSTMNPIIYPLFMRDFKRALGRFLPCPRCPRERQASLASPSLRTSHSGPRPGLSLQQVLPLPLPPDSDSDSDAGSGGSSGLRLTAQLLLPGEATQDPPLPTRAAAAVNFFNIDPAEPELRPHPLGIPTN
Chain of Dual specificity mitogen-activated protein kinase kinase 6 (Homo sapiens) (P52564 whole entry): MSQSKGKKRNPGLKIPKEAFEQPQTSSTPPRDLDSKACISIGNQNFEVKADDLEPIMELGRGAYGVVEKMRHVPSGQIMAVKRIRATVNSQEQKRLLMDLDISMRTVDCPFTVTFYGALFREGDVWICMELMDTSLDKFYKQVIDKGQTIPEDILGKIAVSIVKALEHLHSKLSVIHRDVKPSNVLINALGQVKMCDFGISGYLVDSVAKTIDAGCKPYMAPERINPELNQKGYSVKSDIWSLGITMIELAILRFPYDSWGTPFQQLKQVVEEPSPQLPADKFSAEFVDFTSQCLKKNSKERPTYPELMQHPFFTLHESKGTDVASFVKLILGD
Chain of Mitogen-activated protein kinase 14 (Homo sapiens) (Q16539 whole entry): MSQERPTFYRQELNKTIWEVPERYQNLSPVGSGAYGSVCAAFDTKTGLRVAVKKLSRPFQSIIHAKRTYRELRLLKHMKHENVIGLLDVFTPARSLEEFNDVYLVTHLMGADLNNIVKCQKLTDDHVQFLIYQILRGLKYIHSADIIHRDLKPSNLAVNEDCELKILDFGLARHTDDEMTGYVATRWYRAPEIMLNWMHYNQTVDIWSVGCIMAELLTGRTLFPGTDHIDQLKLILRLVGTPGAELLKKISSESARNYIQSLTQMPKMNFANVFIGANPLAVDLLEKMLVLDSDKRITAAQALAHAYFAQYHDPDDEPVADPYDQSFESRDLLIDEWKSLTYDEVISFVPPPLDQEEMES
Chain of Tyrosine-protein kinase JAK3 (Homo sapiens) (P52333 whole entry): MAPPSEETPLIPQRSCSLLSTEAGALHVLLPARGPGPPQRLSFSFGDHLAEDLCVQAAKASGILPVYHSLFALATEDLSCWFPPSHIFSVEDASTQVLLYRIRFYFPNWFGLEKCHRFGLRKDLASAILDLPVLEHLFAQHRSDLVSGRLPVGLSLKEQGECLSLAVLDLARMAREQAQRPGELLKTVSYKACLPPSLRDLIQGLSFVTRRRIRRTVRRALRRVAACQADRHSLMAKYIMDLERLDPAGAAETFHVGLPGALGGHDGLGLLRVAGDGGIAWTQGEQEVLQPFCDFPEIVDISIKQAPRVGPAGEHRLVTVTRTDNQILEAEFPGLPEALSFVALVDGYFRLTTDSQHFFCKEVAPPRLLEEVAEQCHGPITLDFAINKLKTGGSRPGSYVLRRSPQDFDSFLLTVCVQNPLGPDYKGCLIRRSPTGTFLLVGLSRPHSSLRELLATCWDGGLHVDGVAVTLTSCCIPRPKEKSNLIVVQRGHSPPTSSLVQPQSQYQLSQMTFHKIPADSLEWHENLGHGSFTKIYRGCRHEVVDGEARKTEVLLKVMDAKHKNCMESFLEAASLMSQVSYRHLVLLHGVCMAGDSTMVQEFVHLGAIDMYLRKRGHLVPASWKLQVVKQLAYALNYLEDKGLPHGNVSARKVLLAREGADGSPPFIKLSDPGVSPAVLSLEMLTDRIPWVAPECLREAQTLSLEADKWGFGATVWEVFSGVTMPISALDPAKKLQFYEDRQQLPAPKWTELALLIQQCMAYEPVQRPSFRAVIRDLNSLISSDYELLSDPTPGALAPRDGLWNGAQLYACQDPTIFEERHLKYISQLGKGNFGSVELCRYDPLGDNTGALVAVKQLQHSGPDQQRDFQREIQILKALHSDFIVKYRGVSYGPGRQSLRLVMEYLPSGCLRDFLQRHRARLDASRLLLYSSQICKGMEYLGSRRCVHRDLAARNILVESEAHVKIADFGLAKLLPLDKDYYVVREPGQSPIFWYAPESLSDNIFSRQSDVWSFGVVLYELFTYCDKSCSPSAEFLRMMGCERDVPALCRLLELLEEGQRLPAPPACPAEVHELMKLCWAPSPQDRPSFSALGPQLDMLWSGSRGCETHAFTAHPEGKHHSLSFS

Structure (SMILES) | residual activity [1] [%] | residual activity [2] [%] | residual activity [3] [%] | residual activity [5] [%] | residual activity [7] [%] | inhibition [8] [%] | residual activity [10] [%] | residual activity [12] [%] | residual activity [13] [%] | residual activity [14] [%] | inhibition [15] [%] | residual activity [16] [%] | residual activity [17] [%] | residual activity [18] [%] | inhibition [19] [%] | inhibition [20] [%] | further results
COc1cc(-c2cn([C@H]3CCc4ccccc4N(CC(F)(F)F)C3=O)nn2)ccc1-n1ccc(C)n1 | 82 | 100 | 97 | 83 | 54 | 3.62 | 81 | 88 | 94 | 100 | 5.84 | 100 | 62 | 91 | 90.6 | -1.39 | Ki (D(4) dopamine receptor): 4950 nM; Ki [4]: 5070 nM; pKi [4]: 5.36; inhibition [6]: 11.3%; Ki [9]: 1390 nM; Ki [11]: 10000 nM
COc1cc(-c2cn([C@H]3CCc4c(F)cccc4N(CC(F)(F)F)C3=O)nn2)ccc1-n1cnc(C)c1 | 90 | 100 | 100 | 100 | 57 | 5.87 | 82 | 100 | 100 | 100 | 26.8 | 100 | 100 | 100 | 88.6 | -4.64 | inhibition [21]: -5.61%; inhibition [22]: -8.76%; IC50 [23]: 536 nM (active); inhibition [24]: 14.4%; Ki (Histamine H2 receptor): 975 nM; Ki ([25]; read-out: Ki): 191 nM; Ki ([25]; read-out: pKi (converted)): 200 nM; inhibition [26]: 14.1%; inhibition [27]: 2.11%; inhibition [28]: 8.88%; inhibition [29]: 15.8%; IC50 [30]: 13 nM (active); inhibition [31]: 19.9%; Ki [32]: 808 nM
